Target: MAPK14 (human) (UniProt Q16539)
Assay: Assessment of MAPK14 Kinase Activity

MAPK14 (human), sequence (Q16539 whole entry, looked up): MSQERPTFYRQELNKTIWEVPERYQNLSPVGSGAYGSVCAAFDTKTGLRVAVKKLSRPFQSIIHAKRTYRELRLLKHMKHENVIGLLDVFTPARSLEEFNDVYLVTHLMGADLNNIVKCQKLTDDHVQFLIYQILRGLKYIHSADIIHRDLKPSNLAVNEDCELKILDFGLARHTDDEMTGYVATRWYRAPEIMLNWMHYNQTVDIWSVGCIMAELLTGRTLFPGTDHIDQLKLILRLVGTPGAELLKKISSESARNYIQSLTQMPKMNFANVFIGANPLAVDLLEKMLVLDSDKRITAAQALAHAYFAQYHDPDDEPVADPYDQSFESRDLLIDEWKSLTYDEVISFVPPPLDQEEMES

IC50 [nM]	SMILES
< 100	Cc1ccc(NC(=O)Nc2sc(C(C)(C)C)cc2C(=O)N2CCNC(=O)C2(C)C)cc1-c1ccc(NCC(C)C)nc1
< 100	Cc1nnc(-c2ccc(-c3cc(NC(=O)Nc4sc(C(C)(C)C)nc4C(=O)N4CCN(C)C(=O)C4(C)C)ccc3C)cn2)o1
< 100	COc1ccc(-c2cc(NC(=O)Nc3sc(C(C)(C)C)cc3C(=O)N3CCN(C)C(=O)C3(C)C)cc(F)c2C)cn1
< 100	CCc1ccc(-c2cc(NC(=O)Nc3sc(C(C)(C)C)cc3C(=O)N3CCN(C)C(=O)C3(C)C)cc(F)c2C)cn1
100 to 1000	CCc1ccc(-c2cc(NC(=O)Nc3sc(C(C)(C)C)cc3C(=O)N3CCN(CCN(C)C)C(=O)C3(C)C)ccc2C)cn1
100 to 1000	Cc1ccc(NC(=O)Nc2sc3c(c2C(=O)N2CCN(C)C(=O)C2(C)C)CCOC3)cc1-c1ccc(CN2CCOCC2)nc1
< 100	Cc1ccc(NC(=O)Nc2sc(C(C)(C)C)cc2C(=O)N2CCNC(=O)C2(C)C)cc1-c1ncccn1
< 100	Cc1ccc(NC(=O)Nc2oc(C(C)(C)C)cc2C(=O)N2CCNC(=O)C2(C)C)cc1-c1ccncc1
< 100	Cc1ccc(NC(=O)Nc2cc(C(C)(C)C)sc2C(=O)N2CCNC(=O)C2(C)C)cc1-c1ccc(N2CCOCC2)nc1
< 100	Cc1ccc(NC(=O)Nc2sc(C(C)(C)C)cc2C(=O)N2CCN(C)C(=O)C2(C)C)cc1-c1ccc(-n2cccn2)nc1
< 100	CCc1ccc(-c2cc(NC(=O)Nc3sc(C(C)(C)C)cc3C(=O)N3CCNC(=O)C3(C)C)ccc2C)cn1
< 100	CCNC(=O)c1ccc(-c2cc(NC(=O)Nc3sc(C(C)(C)C)nc3C(=O)N3CCN(C)C(=O)C3(C)C)ccc2C)cn1
< 100	CCC(C)(C)c1cc(C(=O)N2CCN(C)C(=O)C2(C)C)c(NC(=O)Nc2ccc(C)c(-c3ccc(CN4CCOCC4)nc3)c2)s1
< 100	Cc1ccc(NC(=O)Nc2sc(C(C)(C)C)cc2C(=O)N2CCNC(=O)C2(C)C)cc1C#CCN1CCN(C)CC1
< 100	Cc1ccc(NC(=O)Nc2cc(C(C)(C)C)sc2C(=O)N2CCN(C)C(=O)C2)cc1-c1ccc(CN2CCOCC2)nc1
< 100	Cc1ccc(-c2cc(NC(=O)Nc3sc(C(C)(C)C)cc3C(=O)N3CCN(C)C(=O)C3(C)C)ccc2C)cn1
< 100	CCNC(=O)c1ccc(-c2cc(NC(=O)Nc3cn(C(C)(C)C)nc3C(=O)N3CCNC(=O)C3(C)C)ccc2C)cn1

More lines, now with the values behind:

SMILES	IC50 [nM]
Cc1ccc(NC(=O)Nc2sc(C(C)(C)C)nc2C(=O)N2CCN(C)C(=O)C2(C)C)cc1-c1ccc(CN2CCOCC2)cn1	< 100
Cc1ccc(NC(=O)Nc2sc(C(C)(C)C)cc2C(=O)N2CCNC(=O)C2(C)C)cc1C#CCOCCN1CCOCC1	< 100
CC(C)(C)c1cc(C(=O)N2CCNC(=O)C2(C)C)c(NC(=O)Nc2cccc(-c3cccnc3)c2)s1	< 100
C#Cc1cc(NC(=O)Nc2sc(C(C)(C)C)cc2C(=O)N2CCNC(=O)C2(C)C)ccc1C	< 100
Cc1ccc(NC(=O)Nc2sc(C(C)(C)C)cc2C(=O)N2CCNC(=O)C2(C)C)cc1-c1ccc(N2CCN(C)CC2)nc1	< 100
Cc1ccc(NC(=O)Nc2sc(C(C)(C)C)cc2C(=O)N2CCNC(=O)C2(C)C)cc1-c1ccc(OCCCc2ccccn2)nc1	< 100
Cc1ccc(-c2ccc(N3CCOCC3)nc2)cc1NC(=O)Nc1sc(C(C)(C)C)cc1C(=O)N1CCNC(=O)C1(C)C	< 100
Cc1nc(-c2cccc(NC(=O)Nc3sc(C(C)(C)C)cc3C(=O)N3CCNC(=O)C3(C)C)c2)cs1	< 100
C#Cc1ccc(-c2cc(NC(=O)Nc3sc(C(C)(C)C)cc3C(=O)N3CCNC(=O)C3(C)C)ccc2C)cn1	< 100
CN(C)CCOc1ccc(-c2cccc(NC(=O)Nc3sc(C(C)(C)C)cc3C(=O)N3CCNC(=O)C3(C)C)c2)cn1	< 100
Cc1ccc(NC(=O)Nc2cn(C(C)(C)C)nc2C(=O)N2CCN(C)C(=O)C2(C)C)cc1-c1ccc(CN2CCOCC2)nc1	< 100
CCNC(=O)c1ccc(-c2cc(NC(=O)Nc3cc(C(C)(C)C)oc3C(=O)N3CCN(C)C(=O)C3(C)C)ccc2C)cn1	< 100
Cc1ccc(NC(=O)Nc2sc(C(C)(C)C)cc2C(=O)N2CCN(C)C(=O)C2(C)C)cc1-c1ccc(C[N+]2([O-])CCOCC2)[n+]([O-])c1	100 to 1000
CCN1CCN(C(=O)c2sc(C(C)(C)C)cc2NC(=O)Nc2ccc(C)c(-c3ccc(CN4CCOCC4)nc3)c2)C(C)(C)C1=O	< 100
Cc1ccc(NC(=O)Nc2sc(C(C)(C)C)cc2C(=O)N2CCC(=O)N(C)CC2)cc1-c1ccc(N2CCOCC2)cn1	< 100
COc1ccc(-c2cc(NC(=O)Nc3cc(C(C)(C)C)sc3C(=O)N3CCN(C)C(=O)C3(C)C)ccc2C)cn1	< 100
COc1ccc(-c2cc(NC(=O)Nc3sc(C(C)(C)C)cc3C(=O)N3CCNC(=O)C3(C)C)ccc2C)cn1	< 100
Cc1ccc(NC(=O)Nc2sc(C(C)(C)C)cc2C(=O)N2CCNC(=O)C2(C)C)cc1-c1ccc(OCCN2CCNCC2)nc1	< 100
Cc1ccc(NC(=O)Nc2sc(C(C)(C)C)cc2C(=O)N2CCN(C)C(=O)C2(C)C)cc1-c1ccc(C(C)N2CCOCC2)nc1 (configuration not stated)	< 100
Cc1ccc(NC(=O)Nc2sc(C(C)(C)C)cc2C(=O)N2CCNC(=O)C2(C)C)cc1-c1ccc(OC2CCOCC2)nc1	< 100

Reference: the Kinase Knowledgebase extract (Sharma et al. 2016)
